The record followed here is patent publication US20110319611A1, “BENZOXAZINONE COMPOUND, METHOD FOR PRODUCING THE SAME, AND PHARMACEUTICAL COMPOSITION CONTAINING THE SAME” (Chang Gung University, priority 2010, published 2011).

The structures appear in SMILES notation. A value given as a limit tells only on which side of the number the result lay.

Assay [1] has as its system Human neutrophils. The assay is described as follows: O2•− generation assay (SOD-inhibitable reduction of ferricytochrome c) in FMLP/CB-activated neutrophils. To be noted: Neutrophil, absorbance 550 nm, mean ± S.E.M. (n = 3). It is filed as cell-based. On the procedure: (§1) Human neutrophils were prepared by the following procedure. […] The precipitate thus obtained was treated with a hypotonic solution, i.e., 0.2% NaCl, to lyse erythrocytes, followed by removal of the lysed erythrocytes using centrifugation at 200 g and 4° C. for 8 minutes so as to obtain the neutrophils. […] The neutrophil suspension was stored at 4° C. before use.
The O2^•− generation assay was based on the superoxide dismutase (SCD)-inhinitable reduction of ferricytochrome c. […] The neutrophils obtained in the section of “3. […] In a control group, 100% DMSO was used to substitute the compound solution. Moreover, in the positive control group, diphenyleneiodonium (DPI) was used to substitute the compound solution. The reacted mixture was added with 1.5 μl of cytochalasin B (CB, […]) and was incubated for […], followed by addition with 1.5 μl of formyl-L-methionyl-L-leucyl-L-phenylalanine (FMLP, 100 μM) and reaction for 10 minutes to activate neutrophils.

Assay [2] has as its system Human neutrophils. Kind of assay: Release of human neutrophil elastase (NE) from FMLP/CB-activated neutrophils. In kind it is cell-based. Conditions: substrate MeO-Suc-Ala-Ala-Pro-Val-p-nitroanilide, 405 nm, mean ± S.E.M. (n = 3). On the procedure:
as §1
The neutrophils obtained in the section of “3. […] In a control group, 100% DMSO was used to substitute the compound solution. […] The reacted mixture was added with 1.5 μl of cytochalasin B (CB, 0.5 mg/ml) and was incubated for 3 minutes, followed by addition with 1.5 μl of formyl-L-methionyl-L-leucyl-L-phenylalanine (FMLP, 100 μM) and reaction for 10 minutes to activate neutrophils.

Assay [3] has as its system lung injury caused by trauma-hemorrhagic shock. The assay is described as follows: Water content assay of lung tissue after trauma-hemorrhagic shock. In kind it is in vivo, rat. On the procedure: (§2) Specifically, the effects of compound E7 on water content in lung tissues and myeloperoxidase (MPO) activity were measured.
(§3) In brief, male Sprague-Dawley (S.D.) rats having a body weight ranging from 275 to 325 g were obtained from National Laboratory Animal Center. The rats were randomly divided into four groups including experimental groups 1 and 2 and sham-operated groups 1 and 2. Each group included 8 rats. All rats were raised in an air-conditioned room with the following conditions: a light-dark cycle of 12-14 hours of illumination and 10-12 hours of darkness, 20-26° C., and relative humidity of 40-60%. The rats were free to have sufficient drinking water and feed and lived in the aforesaid room for one week to adapt to the environment. Before beginning the experiments, the rats were starved overnight while allowed to have sufficient drinking water ad libitum. The rats were anesthetized by isoflurane (Attane, Minrad, Bethlehem, Pa.) inhalation and were subjected to 5-cm midline laparotomy in the abdomen. […] The total amount of the blood volume of maximum bleed-out was recorded. […]
The left upper lobe was weighted and the weight was referred to as “wet weight”. The left upper lobe was then dried at 80° C. for 24 hours, and the weight, referred to as dry weight, thereof was measured. […]
The data were analyzed using the GraphPad Prism software (GraphPad Software, San Diego, Calif.). […]

Assay [4] has the same test system. The assay is described as follows: Myeloperoxidase (MPO) activity in lung tissue after trauma-hemorrhagic shock. In kind it is in vivo, rat. As to the method:
as §2, §3
Activity of MPO was determined based on a method disclosed in H. P. Yu et al., Biochem. Pharmacol., 78: 983-992, 2009. […]

In assay [5] the target is T1, human neutrophil elastase (Homo sapiens, UniProt P08246).
T1 construct: endogenous in cells; cell-free supernatant used
T1 sequence (P08246 30-267): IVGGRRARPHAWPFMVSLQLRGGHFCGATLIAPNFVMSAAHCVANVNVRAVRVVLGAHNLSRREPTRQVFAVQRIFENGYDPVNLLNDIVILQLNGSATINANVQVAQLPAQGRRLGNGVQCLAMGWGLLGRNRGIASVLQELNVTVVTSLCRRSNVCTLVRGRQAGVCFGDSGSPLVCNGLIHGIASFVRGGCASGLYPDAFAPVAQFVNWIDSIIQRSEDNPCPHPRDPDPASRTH
The assay is described as follows: Inhibition of NE activity in supernatant of activated neutrophils. It is filed as biochemical. To be noted: supernatant of FMLP/CB-activated human neutrophils containing NE; mean ± S.E.M. (n = 3). An excerpt:
The neutrophils obtained in the section of “3. […] In a control group, 100% DMSO was used to substitute the compound solution. Moreover, in the positive control group, PMSF was used to substitute the compound solution.

The target in assay [6] is T2, human NE (Homo sapiens, UniProt P08246).
T2 construct: purchased Sigma, St. Louis, Mo; USA
T2 sequence (P08246 30-267): T1 sequence (P08246 30-267)
Kind of assay: Inhibition of commercially available pure neutrophil elastase. In kind it is biochemical. To be noted: 0.0075 U/ml human NE (Sigma), 96-well plate, 30 minutes, 405 nm. The text has this:
In a control group, 0.1% DMSO was used to substitute the compound solution. Moreover, in the positive control group, PMSF was used to substitute the compound solution.

Setting [7] is: sham-operated rats, E7 (group 2) vs vehicle (group 1).

The term IC50 denotes the concentration needed to halve the response being measured. The low end stands for inhibition by little substance, the high end for a need for much substance. `O=c1oc(-c2ccccc2F)nc2c(Cl)cccc12` [CE1, 8-chloro-2-(2′-fluorophenyl)-4H-benzo[d][1,3]oxazin-4-one]: the IC50 was greater than 25 µM in assay [1] and 6.03 ± 0.65 µM in assay [2] (Neutrophil).

For the compound `O=c1oc(-c2ccccc2Cl)nc2c(Cl)cccc12` [CE2, 8-chloro-2-(2′-chlorophenyl)-4H-benzo[d][1,3]oxazin-4-one], the 50% inhibitory concentration (IC50) in assay [1] is 8.66 ± 1.44 µM; in assay [2] (Neutrophil), 1.89 ± 1.1 µM.

Turning to `O=c1oc(-c2ccccc2Br)nc2c(Cl)cccc12` [CE3, 8-chloro-2-(2′-bromophenyl)-4H-benzo[d][1,3]oxazin-4-one], the 50% inhibitory concentration (IC50) in assay [1] came to 6.56 ± 3.09 µM; in assay [2] (Neutrophil), 1.69 ± 0.3 µM.

Regarding `Cc1ccccc1-c1nc2c(Cl)cccc2c(=O)o1` [CE4, 8-chloro-2-(2′-methylphenyl)-4H-benzo[d][1,3]oxazin-4-one], the IC50 in assay [1] was 17.5 ± 2.69 µM; in assay [2] (Neutrophil), greater than 25 µM.

Regarding `COc1ccccc1-c1nc2c(Cl)cccc2c(=O)o1` [CE5, 8-chloro-2-(2′-methoxylphenyl)-4H-benzo[d][1,3]oxazin-4-one], the IC50 in assay [1] came to 10 ± 0.59 µM; in assay [2] (Neutrophil), 1.91 ± 0.14 µM.

Consider `O=c1oc(-c2ccccc2Br)nc2cccc(Cl)c12` [Compound E7, 5-chloro-2-(2′-bromophenyl)-4H-benzo[d][1,3]oxazin-4-one], for which the “water content in lung tissue (wet weight/dry weight)” value in assay [3] (setting [7]) is given as “no significant difference”; in assay [3] (trauma-hemorrhage rats, E7 (experimental group 2) vs vehicle (experimental group 1), 24 hours after resuscitation, p<0.001), “significantly reduced”. The “MPO activity in lung tissue” value in assay [4] (setting [7]) was “no significant difference”; in assay [4] (trauma-hemorrhage rats, E7 (experimental group 2) vs vehicle (experimental group 1), 24 hours after resuscitation, p<0.01), “significantly reduced”.

Take `c1ccc2c(c1)[I+]c1ccccc1-2` [DPI, diphenyleneiodonium]: in assay [1], the IC50 was determined as 0.97 ± 0.395 µM.

Compound `CC(C)C[C@H](NC(=O)N[C@H](C(=O)N[C@@H](CCC(N)=O)C(=O)N[C@@H](C)C=O)[C@@H]1CCNC(=N)N1)C(=O)O` [Elastatinal, elastatinal] yielded an IC50 in assay [2] (Neutrophil) of 56.5 ± 9.13 µM.

In the case of `O=S(=O)(F)Cc1ccccc1` [PMSF, phenylmethylsulfonyl fluoride], the half-maximal inhibitory concentration (IC50) in assay [2] stood at 110 ± 25 µM; in assay [5] it was 95.2 ± 19.2 µM; in assay [6], 52.2 ± 1.07 µM.
